Experimental data taken from ChEMBL document CHEMBL1133610, “GRID/CPCA: a new computational tool to design selective ligands” (J Med Chem, 2000).

Key:
Prothrombin = Prothrombin (Homo sapiens, UniProt P00734); test: Inhibitory activity against human thrombin
Coagulation factor X [1] = target: T1, Coagulation factor X (Homo sapiens, UniProt P00742); test: Inhibitory activity against human Coagulation factor Xa
Coagulation factor X [2] = target: T1, Coagulation factor X; test: Inhibitory Activity against Coagulation factor X
Serine protease 1 = Serine protease 1 (Homo sapiens, UniProt P07477); test: Inhibitory Activity against Trypsin
Sequence of Serine protease 1 (P07477 whole entry): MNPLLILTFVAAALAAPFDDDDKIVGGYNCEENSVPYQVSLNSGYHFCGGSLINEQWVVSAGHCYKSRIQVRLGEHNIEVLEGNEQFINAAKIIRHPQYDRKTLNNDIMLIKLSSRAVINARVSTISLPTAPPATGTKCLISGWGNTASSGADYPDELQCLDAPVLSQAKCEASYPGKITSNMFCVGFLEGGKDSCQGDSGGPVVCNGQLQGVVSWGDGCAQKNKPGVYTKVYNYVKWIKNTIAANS

T1 sequence (P00742 41-179 limits assumed): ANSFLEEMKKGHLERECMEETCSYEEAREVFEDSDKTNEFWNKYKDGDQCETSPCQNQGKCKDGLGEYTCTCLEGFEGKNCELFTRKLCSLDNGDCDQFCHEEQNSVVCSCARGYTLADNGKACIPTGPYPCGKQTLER
T1 sequence (P00742 235-488 limits assumed): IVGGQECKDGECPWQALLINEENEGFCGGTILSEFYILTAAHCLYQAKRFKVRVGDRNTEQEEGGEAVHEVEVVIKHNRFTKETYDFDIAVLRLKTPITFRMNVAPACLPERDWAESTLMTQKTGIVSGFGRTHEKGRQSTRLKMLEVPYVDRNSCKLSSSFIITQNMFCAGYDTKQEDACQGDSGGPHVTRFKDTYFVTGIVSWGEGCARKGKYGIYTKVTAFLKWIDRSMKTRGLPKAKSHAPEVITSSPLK

SMILES | IC50 (Prothrombin) [µM] | IC50 (Coagulation factor X [1]) [µM] | Ki (Coagulation factor X [2]) [µM] | Ki (Serine protease 1) [µM]
N=C(N)c1cccc(-c2cccc([C@H](CCCNc3ccncc3)C(=O)O)c2)c1 | > 100 | 0.00272 | – | –
CC1CNc2c(cccc2S(=O)(=O)N[C@@H](CCCN=C(N)N)C(=O)N2CC[C@@H](C)CC2C(=O)O)C1 (some centres undefined) | – | – | 210 | 5
